These results are taken from patent US10988477B2 (Merck Patent GmbH, priority 2018, dated 2021).

In assay [1] the target is intracellular GCN2 (phosphorylation of the GCN2 substrate eIF2α) (Homo sapiens, UniProt Q9P2K8). Nature of the assay: GCN2 cellular inhibition assay (AlphaScreen SureFire P-eIF2α Ser51, borrelidin-treated U2OS cells). It is filed as cell-based. To be noted: compounds of Formula II; biomarker assay, phosphorylated eIF2α Ser51 in borrelidin-treated U2OS cells. In short, it runs like this:
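U2OS, overnight attach; cpd 4-fold serial dil. from 40 μM final; borrelidin 10 μM, 1 h 37 °C/5% CO2; lyse; AlphaScreen P-eIF2α Ser51 (acceptor 2 h, donor overnight, RT, dark); % inhib. vs borrelidin-only.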
(Bead proximity is the source of the signal in Alpha formats.)

A further assay concerns the target GCN2 kinase (Homo sapiens, UniProt Q9P2K8). Nature of the assay: GCN2 enzyme inhibition assay (Transcreener ADP2 fluorescence polarization). Type of assay: biochemical. Conditions: compounds of Formula II; 280 μM ATP, 4 nM GCN2 kinase. In short, it runs like this:
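Human GCN2 (4 nM) preincubated 10 min with compound (0–8 μM) and 200 μM (RS)7 peptide in Tris-HCl pH 7.5, NaCl, MgCl2, DTT. Reaction started with 280 μM ATP, run 1 h at 25 °C. ADP detected by Transcreener fluorescence polarization. IC50 and Ki(app) fitted by tight-binding algorithm.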

Sequence of GCN2 kinase (Q9P2K8 whole entry): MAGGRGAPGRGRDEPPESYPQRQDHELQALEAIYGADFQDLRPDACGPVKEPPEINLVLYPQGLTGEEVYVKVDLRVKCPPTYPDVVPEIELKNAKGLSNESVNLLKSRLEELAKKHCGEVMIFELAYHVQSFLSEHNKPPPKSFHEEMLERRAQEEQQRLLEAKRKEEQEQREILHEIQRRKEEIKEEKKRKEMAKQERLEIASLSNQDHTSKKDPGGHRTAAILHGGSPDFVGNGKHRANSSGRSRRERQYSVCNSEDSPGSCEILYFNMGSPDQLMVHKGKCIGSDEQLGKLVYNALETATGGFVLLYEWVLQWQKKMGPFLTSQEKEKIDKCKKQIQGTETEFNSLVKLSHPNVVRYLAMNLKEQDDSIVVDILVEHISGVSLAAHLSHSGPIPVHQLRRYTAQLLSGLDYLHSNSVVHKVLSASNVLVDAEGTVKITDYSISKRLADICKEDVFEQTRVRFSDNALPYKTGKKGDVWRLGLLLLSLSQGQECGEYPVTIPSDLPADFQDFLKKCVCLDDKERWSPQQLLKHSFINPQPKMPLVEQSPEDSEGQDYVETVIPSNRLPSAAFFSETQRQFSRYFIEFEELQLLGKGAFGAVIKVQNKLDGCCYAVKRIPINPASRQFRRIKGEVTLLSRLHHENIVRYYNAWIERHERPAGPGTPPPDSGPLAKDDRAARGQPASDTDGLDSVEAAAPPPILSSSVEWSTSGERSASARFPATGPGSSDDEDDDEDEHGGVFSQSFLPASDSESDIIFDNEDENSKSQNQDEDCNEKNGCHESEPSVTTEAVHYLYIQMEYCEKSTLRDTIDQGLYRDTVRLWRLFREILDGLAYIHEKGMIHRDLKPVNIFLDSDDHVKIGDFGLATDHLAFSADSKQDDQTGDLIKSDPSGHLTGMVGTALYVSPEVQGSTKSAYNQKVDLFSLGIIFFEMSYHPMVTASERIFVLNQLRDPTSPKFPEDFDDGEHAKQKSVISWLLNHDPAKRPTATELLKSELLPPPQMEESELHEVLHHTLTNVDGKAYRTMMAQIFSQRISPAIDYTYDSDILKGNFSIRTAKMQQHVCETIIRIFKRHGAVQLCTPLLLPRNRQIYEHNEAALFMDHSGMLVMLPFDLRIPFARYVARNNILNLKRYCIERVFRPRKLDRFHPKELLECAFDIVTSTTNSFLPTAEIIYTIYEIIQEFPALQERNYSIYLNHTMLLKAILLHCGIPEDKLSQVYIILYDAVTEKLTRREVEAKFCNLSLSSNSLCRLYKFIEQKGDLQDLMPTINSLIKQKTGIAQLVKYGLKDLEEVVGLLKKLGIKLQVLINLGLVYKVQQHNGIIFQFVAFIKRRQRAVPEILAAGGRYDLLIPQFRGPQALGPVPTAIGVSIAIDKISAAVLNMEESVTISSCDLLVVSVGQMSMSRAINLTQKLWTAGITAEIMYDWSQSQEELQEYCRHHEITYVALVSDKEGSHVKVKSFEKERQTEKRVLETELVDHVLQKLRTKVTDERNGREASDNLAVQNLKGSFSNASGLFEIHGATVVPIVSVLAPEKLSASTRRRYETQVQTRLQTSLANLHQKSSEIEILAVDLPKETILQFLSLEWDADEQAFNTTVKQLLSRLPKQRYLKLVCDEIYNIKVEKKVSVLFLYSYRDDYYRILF
Sequence of intracellular GCN2 (phosphorylation of the GCN2 substrate eIF2α) (Q9P2K8 whole entry): as above

In general, IC50 refers to the concentration that gives 50% inhibition. Usually Ki stands for the dissociation constant of the complex between target and ligand, obtained from inhibition or displacement. Lower therefore signals higher affinity. For `CS(=O)(=O)NC[C@@H]1CN(c2cc(-c3cnc4ccc(C(F)F)nn34)ncn2)C[C@@H](C(F)(F)F)O1` [II-307, N-(((2S,6S)-4-(6-(6-(Difluoromethyl)imidazo[1,2-b]pyridazin-3-yl)pyrimidin-4-yl)-6-(trifluoromethyl)morpholin-2-yl)methyl)methanesulfonamide], the IC50 in assay [1] fell in the range of 500 to 5000 nM. The Ki on GCN2 kinase is 10 to 1000 nM.
`FC(F)c1ccc2ncc(-c3cc(N4CCCCC4)ncn3)n2n1` [II-308, 6-(Difluoromethyl)-3-(6-(piperidin-1-yl)pyrimidin-4-yl)imidazo[1,2-b]pyridazine]: the IC50 in assay [1] is over 5000 nM. The compound further returned a Ki at GCN2 kinase of 10 to 1000 nM.
The matching figures for `O=C1COC2(CN1)COCCN(c1cc(-c3cnc4ccc(C(F)F)nn34)ncn1)C2` (stereo not shown) [II-309, 11-(6-(6-(Difluoromethyl)imidazo[1,2-b]pyridazin-3-yl)pyrimidin-4-yl)-1,8-dioxa-4,11-diazaspiro[5.6]dodecan-3-one]: over 5000 nM and over 1000 nM.
The matching figures for `CN(CC1CCCN(c2cc(-c3cnc4ccc(C(F)F)nn34)ncn2)C1)S(C)(=O)=O` (stereo not shown) [II-310, N-((1-(6-(6-(Difluoromethyl)imidazo[1,2-b]pyridazin-3-yl)pyrimidin-4-yl)piperidin-3-yl)methyl)-N-methylmethanesulfonamide]: 500 to 5000 nM and 10 to 1000 nM.
For `CN(CC1CCCN(c2cc(-c3cnc4ccc(C(F)F)nn34)ncn2)C1)S(N)(=O)=O` (stereo not shown) [II-311, 1-((1-(6-(6-(Difluoromethyl)imidazo[1,2-b]pyridazin-3-yl)pyrimidin-4-yl)piperidin-3-yl)methyl)-1-methylsulfuric diamide], the IC50 in assay [1] is under 500 nM. This compound came in with a Ki on GCN2 kinase of under 10 nM.
For the compound `CC1C(CNS(C)(=O)=O)NCCN1c1cc(-c2cnc3ccc(C(F)F)nn23)ncn1` (stereo not shown) [II-313, N-[[4-[6-[6-(Difluoromethyl)imidazo[1,2-b]pyridazin-3-yl]pyrimidin-4-yl]-3-methyl-piperazin-2-yl]methyl]methanesulfonamide], the IC50 in assay [1] was under 500 nM. The same compound came in with a Ki at GCN2 kinase of under 10 nM.
The corresponding values for `OC[C@@H]1C[C@@H](C(F)(F)F)CN(c2cc(-c3cnc4ccc(C(F)F)nn34)ncn2)C1` [II-314, ((3R,5R)-1-(6-(6-(Difluoromethyl)imidazo[1,2-b]pyridazin-3-yl)pyrimidin-4-yl)-5-(trifluoromethyl)piperidin-3-yl)methanol] are over 5000 nM and 10 to 1000 nM.
The matching figures for `OC[C@H]1C[C@@H](C(F)(F)F)CN(c2cc(-c3cnc4ccc(C(F)F)nn34)ncn2)C1` [II-315, ((3S,5R)-1-(6-(6-(Difluoromethyl)imidazo[1,2-b]pyridazin-3-yl)pyrimidin-4-yl)-5-(trifluoromethyl)piperidin-3-yl)methanol]: over 5000 nM and 10 to 1000 nM.
`C[C@H]1CN(c2cc(-c3cnc4ccc(C(F)F)nn34)ncn2)C[C@@H](CNS(N)(=O)=O)C1(F)F` [II-316, 1-(((3S,5S)-1-(6-(6-(Difluoromethyl)imidazo[1,2-b]pyridazin-3-yl)pyrimidin-4-yl)-4,4-difluoro-5-methylpiperidin-3-yl)methyl)sulfuric diamide]: in assay [1], the IC50 is under 500 nM. On GCN2 kinase, the Ki was under 10 nM.
The matching figures for `NS(=O)(=O)CCC1CCCN(c2cc(-c3cnc4ccc(C(F)F)nn34)ncn2)C1` (stereo not shown) [II-317, 2-(1-(6-(6-(Difluoromethyl)imidazo[12-b]pyridazin-3-yl)pyrimidin-4-yl)piperidin-3-yl)ethane-1-sulfonamide]: 500 to 5000 nM and 10 to 1000 nM.
The corresponding values for `NS(=O)(=O)CCC1CN(c2cc(-c3cnc4ccc(C(F)F)nn34)ncn2)CCO1` (stereo not shown) [II-318, 2-(4-(6-(6-(Difluoromethyl)imidazo[1,2-b]pyridazin-3-yl)pyrimidin-4-yl)morpholin-2-yl)ethane-1-sulfonamide] are 500 to 5000 nM and 10 to 1000 nM.
